Assay results published in PubChem BioAssay AID330 (DTP/NCI, 2004).
“And” between values parts separate entries of the source, which are not always exact repeats. Equal entries are not always repeated. Inconclusive results and toxic doses are left out. The calls were made as follows: active = survival T/C of 150% or more; inactive = T/C below 125% in these data.

System: P388 leukemia ip, CD2F1 mice, survival T/C
Experiment: NCI In Vivo Anticancer Drug Screen. Data for tumor model P388 Leukemia (intraperitoneal) in CD2F1 (CDF1) mice
Settings: endpoint: median survival time, higher = longer survival
How it was run: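 Mice carrying the transplanted tumor received test compound or vehicle. Survival was recorded in each group, and the value is the treated-group measurement divided by that of the vehicle-treated control group.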

[1] = dose: 50.0 mg/kg/injection, schedule: Q01DX009 (ip), vehicle: Klucel (hydroxypropylcellulose) (HPC)
[2] = dose: 100.0 mg/kg/injection, schedule: Q01DX009 (ip), vehicle: Klucel (hydroxypropylcellulose) (HPC)
[3] = dose: 60.0 mg/kg/injection, schedule: Q01DX005 (ip), vehicle: saline with Tween-80
[4] = dose: 120.0 mg/kg/injection, schedule: Q01DX005 (ip), vehicle: saline with Tween-80
[5] = dose: 240.0 mg/kg/injection, schedule: Q01DX005 (ip), vehicle: saline with Tween-80
[6] = dose: 60.0 mg/kg/injection, schedule: Q01DX005 (ip), vehicle: Klucel (hydroxypropylcellulose) (HPC)
[7] = dose: 120.0 mg/kg/injection, schedule: Q01DX005 (ip), vehicle: Klucel (hydroxypropylcellulose) (HPC)
[8] = dose: 240.0 mg/kg/injection, schedule: Q01DX005 (ip), vehicle: Klucel (hydroxypropylcellulose) (HPC)
[9] = dose: 50.0 mg/kg/injection, schedule: Q01DX005 (ip), vehicle: Klucel (hydroxypropylcellulose) (HPC)
[10] = dose: 100.0 mg/kg/injection, schedule: Q01DX005 (ip), vehicle: Klucel (hydroxypropylcellulose) (HPC)
[11] = dose: 200.0 mg/kg/injection, schedule: Q01DX005 (ip), vehicle: Klucel (hydroxypropylcellulose) (HPC)
[12] = dose: 50.0 mg/kg/injection, schedule: Q01DX009 (ip), vehicle: saline with Tween-80

Measured: T/C

COc1cc2c(O)c3c(c(-c4ccc5c(c4)OCO5)c2cc1OC)C(=O)OC3
inactive: dose: 25.0 mg/kg/injection, schedule: Q01DX009 (ip), vehicle: Klucel (hydroxypropylcellulose) (HPC) 91 % of control | [1] 100 % of control | [2] 100 % of control | dose: 200.0 mg/kg/injection, schedule: Q01DX009 (ip), vehicle: Klucel (hydroxypropylcellulose) (HPC) 117 % of control

COc1ccc(-c2oc3cc(OC)c(OC)c(OC)c3c(=O)c2O)cc1O
inactive: dose: 25.0 mg/kg/injection, schedule: Q04DX003 (ip), vehicle: saline with Tween-80 87 % of control | dose: 50.0 mg/kg/injection, schedule: Q04DX003 (ip), vehicle: saline with Tween-80 105 % of control | dose: 100.0 mg/kg/injection, schedule: Q04DX003 (ip), vehicle: saline with Tween-80 97 % of control | dose: 200.0 mg/kg/injection, schedule: Q04DX003 (ip), vehicle: saline with Tween-80 99 % of control

N#CC(Cc1ccc(CC(C#N)(c2ccccc2)c2ccccn2)cc1)(c1ccccc1)c1ccccn1 (stereo unspecified)
inactive: [3] 100 % of control | [4] 91 % of control | [5] 86 % of control

CO[C@H]1C[C@@H]2CC[C@@H](C)[C@@](O)(O2)C(=O)C(=O)N2CCCC[C@H]2C(=O)O[C@H]([C@H](C)C[C@@H]2CC[C@@H](O)[C@H](OC)C2)CC(=O)[C@H](C)C=C(C)[C@@H](O)[C@@H](OC)C(=O)[C@H](C)C[C@H](C)/C=C/C=C/C=C1C
inactive: dose: 6.25 mg/kg/injection, schedule: Q01DX001 (ip), vehicle: clinical formulation 103 % of control | dose: 6.25 mg/kg/injection, schedule: Q01DX001 (iv), vehicle: clinical formulation 102 % of control | dose: 6.25 mg/kg/injection, schedule: Q01DX005 (iv), vehicle: clinical formulation 115 % of control | dose: 12.5 mg/kg/injection, schedule: Q01DX001 (ip), vehicle: clinical formulation 107 % of control | dose: 12.5 mg/kg/injection, schedule: Q01DX001 (iv), vehicle: clinical formulation 100 % of control | dose: 12.5 mg/kg/injection, schedule: Q01DX005 (iv), vehicle: clinical formulation 110 % of control | dose: 25.0 mg/kg/injection, schedule: Q01DX001 (ip), vehicle: clinical formulation 111 % of control | dose: 25.0 mg/kg/injection, schedule: Q01DX001 (iv), vehicle: clinical formulation 100 % of control | dose: 25.0 mg/kg/injection, schedule: Q01DX005 (iv), vehicle: clinical formulation 113 % of control | dose: 50.0 mg/kg/injection, schedule: Q01DX001 (ip), vehicle: clinical formulation 118 % of control | dose: 50.0 mg/kg/injection, schedule: Q01DX001 (iv), vehicle: clinical formulation 106 % of control | dose: 50.0 mg/kg/injection, schedule: Q01DX005 (iv), vehicle: clinical formulation 113 % of control | dose: 50.0 mg/kg/injection, schedule: Q01DX005 (oral), vehicle: saline with Tween-80 110 % of control | dose: 50.0 mg/kg/injection, schedule: Q01DX009 (oral), vehicle: saline with Tween-80 116 % of control | dose: 100.0 mg/kg/injection, schedule: Q01DX001 (ip), vehicle: clinical formulation 117 % of control | dose: 100.0 mg/kg/injection, schedule: Q01DX001 (ip), vehicle: saline with Tween-80 124 % of control | dose: 100.0 mg/kg/injection, schedule: Q01DX001 (iv), vehicle: clinical formulation 104 % of control | dose: 100.0 mg/kg/injection, schedule: Q01DX005 (ip), vehicle: clinical formulation 110 % of control | dose: 100.0 mg/kg/injection, schedule: Q01DX005 (oral), vehicle: saline with Tween-80 112 % of control | dose: 100.0 mg/kg/injection, schedule: Q01DX009 (oral), vehicle: saline with Tween-80 119 % of control | dose: 200.0 mg/kg/injection, schedule: Q01DX001 (ip), vehicle: clinical formulation 118 % of control | dose: 200.0 mg/kg/injection, schedule: Q01DX005 (oral), vehicle: saline with Tween-80 108 % of control | dose: 200.0 mg/kg/injection, schedule: Q01DX009 (ip), vehicle: saline with Tween-80 122 % of control | dose: 200.0 mg/kg/injection, schedule: Q01DX009 (oral), vehicle: saline with Tween-80 112 % of control | dose: 400.0 mg/kg/injection, schedule: Q01DX005 (oral), vehicle: saline with Tween-80 118 % of control | dose: 400.0 mg/kg/injection, schedule: Q01DX009 (oral), vehicle: saline with Tween-80 116 % of control | dose: 800.0 mg/kg/injection, schedule: Q01DX005 (oral), vehicle: saline with Tween-80 116 % of control | dose: 800.0 mg/kg/injection, schedule: Q01DX009 (oral), vehicle: saline with Tween-80 116 % of control

COc1cccc(/C=C2/C(=O)N(c3ccccc3)N=C2C)c1OC
inactive: [6] 101 % of control | [7] 100 % of control | [8] 110 % of control

CCOSN1CCOCC1
inactive: dose: 25.0 mg/kg/injection, schedule: Q04DX002 (ip), vehicle: saline 101 % of control | dose: 50.0 mg/kg/injection, schedule: Q04DX002 (ip), vehicle: saline 101 % of control | dose: 100.0 mg/kg/injection, schedule: Q04DX002 (ip), vehicle: saline 100 % of control and 93 % of control

Cc1cc(C(=O)O)sn1
inactive: dose: 3.12 mg/kg/injection, schedule: Q01DX009 (ip), vehicle: saline 100 % of control | dose: 6.25 mg/kg/injection, schedule: Q01DX009 (ip), vehicle: saline 100 % of control | dose: 12.5 mg/kg/injection, schedule: Q01DX009 (ip), vehicle: saline 96 % of control | dose: 25.0 mg/kg/injection, schedule: Q01DX009 (ip), vehicle: saline 100 % of control

CCOC(=O)c1c(C(=O)OCC)c2cccn2c2c1cnn2-c1ccccc1
inactive: [3] 99 % of control | [4] 93 % of control | [5] 91 % of control

NC1=NS(=O)(=O)c2ccccc2N1c1ccccc1
inactive: dose: 100.0 mg/kg/injection, schedule: Q04DX002 (ip), vehicle: saline with Tween-80 97 % of control | dose: 200.0 mg/kg/injection, schedule: Q04DX002 (ip), vehicle: saline with Tween-80 103 % of control | dose: 400.0 mg/kg/injection, schedule: Q04DX002 (ip), vehicle: saline with Tween-80 92 % of control

CCC(=O)NC1=C(Cl)C(=O)C(NC(=O)CC)=C(Cl)C1=O
inactive: [1] 98 % of control | [2] 98 % of control

COc1cc(O)c2c(c1N)C(=O)c1ccccc1C2=O
inactive: [9] 105 % of control | [10] 106 % of control | [11] 101 % of control

COc1cccc(N2CC3CC4C=CC3(C2)O4)c1 (stereo unspecified)
inactive: [6] 98 % of control | [7] 100 % of control | [8] 97 % of control

CN1CCCN(C(c2ccccc2)c2ccc(Cl)cc2)CC1 (stereo unspecified)
inactive: dose: 6.25 mg/kg/injection, schedule: Q01DX009 (ip), vehicle: saline with Tween-80 107 % of control | dose: 12.5 mg/kg/injection, schedule: Q01DX009 (ip), vehicle: saline with Tween-80 114 % of control and 115 % of control | dose: 25.0 mg/kg/injection, schedule: Q01DX009 (ip), vehicle: saline with Tween-80 107 % of control and 114 % of control | [12] 120 % of control

CCOC(=O)N1C=CC(C(=O)OC)=CC=C1C(=O)OC
inactive: [9] 98 % of control | [10] 95 % of control | [11] 94 % of control

O=c1oc2cc(-c3c(O)c4ccccc4oc3=O)c(O)cc2s1
inactive: dose: 100.0 mg/kg/injection, schedule: Q01DX001 (ip), vehicle: Klucel (hydroxypropylcellulose) (HPC) 113 % of control | dose: 200.0 mg/kg/injection, schedule: Q01DX001 (ip), vehicle: Klucel (hydroxypropylcellulose) (HPC) 104 % of control | dose: 400.0 mg/kg/injection, schedule: Q01DX001 (ip), vehicle: Klucel (hydroxypropylcellulose) (HPC) 106 % of control

COc1ccc(C)cc1NC(=S)C#N
inactive: [3] 98 % of control | [4] 106 % of control

C=C(C)c1nc(N)nc(N(C)C)n1
inactive: [9] 100 % of control | [10] 102 % of control | [11] 100 % of control

CC1=C(C#N)C(C)(C)C(C#N)=C(C)N1C
inactive: dose: 25.0 mg/kg/injection, schedule: Q01DX009 (ip), vehicle: other 110 % of control | dose: 50.0 mg/kg/injection, schedule: Q01DX009 (ip), vehicle: other 111 % of control | [12] 102 % of control | dose: 100.0 mg/kg/injection, schedule: Q01DX009 (ip), vehicle: other 121 % of control | dose: 100.0 mg/kg/injection, schedule: Q01DX009 (ip), vehicle: saline with Tween-80 98 % of control

O=C1Nc2cccnc2NC2=C1CSC2
inactive: [3] 110 % of control | [4] 97 % of control | [5] 98 % of control
